Here are results for 14 compounds from patent US5698580A, “Antiviral agent containing benzodithiin derivative as active ingredient” (Rational Drug Design Laboratories, priority 1994, dated 1997).

Converted amounts (≈) assume the structure as drawn.

For data set [1], the system named is RS virus. The data set can be described thus: Suppression of RS virus assayed by the MTT method (Experimental Example 1). The format is cell-based, RS virus Long strain. The note with it: for EC50: 120 h, concentration inhibiting HeLa cell destruction by RS virus infection by 50%, 35° C., 5 days, MTT; for S.I. (selectivity index, CC50/EC50): ratio of CC50 to EC50, MTT method. The method, then:
(§1) After the completion of the centrifugation, the media were incubated in a CO2 gas incubator at 35° C. for 5 days. The MTT [3-(4,5-dimethylthiazol-2-yl)-2,5-diphenyltetrazolium bromide] solution was added to the media at 4 hours before the completion of the incubation, and the proportion of viable cells was colorimetrically determined on a microplate reader. The concentration of the compound at which cell destruction by RS virus infection was inhibited by 50% is shown as antiviral activity (EC50). In addition, 50% cytotoxicity value (CC50) of the compound was calculated from the tests run concurrently without inoculation of RS virus. The ratio of CC50 to EC50 was determined as S.I. (selectivity index, CC50 /EC50).
(In general: Formazan colour is commonly taken as a measure of viable cells.)

The nature of data set [2]: in vitro. The note with it: human, hela cells. It counts as cell-based. The method, then:
as §1, with “Maintenance media (Eagle's MEM media supplemented with 2% bovine serum albumin) containing compounds 1-13 or Ribavirin (control drug) at various concentrations, a HeLa cell suspension prepared in advance by digestion with trypsin, and maintenance media containing RS virus Long strain were plated in 96 well round-bottom microplates, and centrifuged at a low speed (700×g) for 5 minutes at room temperature. After” for “After”

For data set [3], the system named is RS virus. Nature of the data set: Suppression of RS virus assayed by plaque reduction method (Experimental Example 2). The format is cell-based, RS virus Long strain. The note with it: for EC50: 96 h, concentration decreasing number of plaques by 50%, HeLa cells, 35° C., 4 days; for S.I. (selectivity index, CC50/EC50): ratio of CC50 to EC50, plaque reduction method. The protocol: (§2) The confluently grown HeLa cells in 24 well flat-bottom multitrays were inoculated with RS virus Long strain prepared in a maintenance medium (Eagle's MEM medium supplemented with 2% bovine serum albumin), and the cells were incubated in a CO2 gas incubator at 35° C. for one hour. Culture solution was discarded and the cells were washed with a maintenance medium. Then, maintenance media (supplemented with 0.6% methylcellulose) containing Compound 1 or Ribavirin (control drug) at various concentrations were added, and the media were incubated in a CO2 gas incubator at 35° C. for 4 days. After the completion of the incubation, the cells were fixed with a 5% aqueous formalin solution for 6 hours and washed with tap water. Then, the cells were stained with a 0.025% aqueous crystal violet solution. The infected cell plaques which were not stained with crystal violet were microscopically counted. The plaques formed using the compound at various concentrations and those of control group without the compound were counted, and the concentration of the compound at which the number of plaques was decreased by 50% is shown as an antiviral activity (EC50). In addition, 50% cytotoxicity (CC50) of the compound was calculated by the MTT method. The ratio of CC50 to EC50 was determined as S.I. (selectivity index, CC50 /EC50).
Background: Plaques are areas of infected cells; plaque reduction assays count them against a control.

Data set [4] deals with RS virus. The note with it: background art; cited from earlier work.
The conditions of data set [5]: background art; cited from earlier work.
Data set [6] in a line: in vitro. The settings on record: human, hela cells. It counts as cell-based. The protocol: as §2
The source holds these as a separate data set.

As to `COC(=O)c1ccc2c(c1)CSSC2` [Compound 4, methyl 1,4-dihydro-2,3-benzodithiin-6-carboxylate], in data set [1], the EC50 came out at 1.8 mg/L (≈ 7.95 µM) and the “S.I. (selectivity index, CC50/EC50)” value turned out to be 5.4. Moreover, the CC50 at 120 h in data set [2] was determined as 9.7 mg/L (≈ 42.9 µM).
Take `NC(=O)c1ncn([C@@H]2O[C@H](CO)[C@@H](O)[C@H]2O)n1` [Ribavirin, reference compound]: in data set [3], the EC50 turned out to be 3.7 mg/L (≈ 15.2 µM) and the “S.I. (selectivity index, CC50/EC50)” value amounted to 27.03. The “effect against RS virus” value in data set [4] was “effective against RS virus”. In data set [1], a half-maximal response (EC50) required 7.6 mg/L (≈ 31.1 µM) and the “S.I. (selectivity index, CC50/EC50)” value was 13.2. The cytotoxic concentration (CC50) at 120 h in data set [2] is above 100 mg/L. Further, in data set [5], the “teratogenicity, carcinogenicity and mutagenicity” value is “teratogenic, carcinogenic and mutagenic”; the toxicity entry is listed as “high toxicity”. Moreover, the cytotoxic concentration (CC50) in data set [6] is above 100 mg/L.
Regarding `CN(C)c1ccc2c(c1)CSSC2` [Compound 12, 1,4-dihydro-6-N,N-dimethylamino-2,3-benzodithiin], in data set [1], the EC50 was found to be 2.3 mg/L (≈ 10.9 µM) and the “S.I. (selectivity index, CC50/EC50)” value came to 14.5. In data set [2], this compound returned a half-maximal cytotoxic concentration (CC50) at 120 h of 33.3 mg/L (≈ 158 µM).
For the compound `Clc1ccc2c(c1)CSSC2` [Compound 11, 6-chloro-1,4-dihydro-2,3-benzodithiin], in data set [1], it took 1.7 mg/L (≈ 8.39 µM) to reach a half-maximal effect (EC50) and the “S.I. (selectivity index, CC50/EC50)” value came to 9.9. In addition, the CC50 at 120 h in data set [2] came out at 16.8 mg/L (≈ 82.9 µM).
Take `CC(C)(C)c1ccc2c(c1)CSSC2` [Compound 13, 6-tert-butyl-1,4-dihydro-2,3-benzodithiin]: in data set [1], the response was half-maximal at 6.5 mg/L (≈ 29 µM) (EC50) and the “S.I. (selectivity index, CC50/EC50)” value turned out to be 2.3. Further, it took 15.2 mg/L (≈ 67.7 µM) to reach half-maximal cytotoxicity in data set [2] (CC50 at 120 h).
As for `O=[N+]([O-])c1ccc2c(c1)CSSC2` [Compound 2, 1,4-dihydro-6-nitro-2,3-benzodithiin], in data set [1], a half-maximal response (EC50) required 1.9 mg/L (≈ 8.91 µM) and the “S.I. (selectivity index, CC50/EC50)” value is recorded as 4.7. This compound showed a CC50 at 120 h in data set [2] of 8.9 mg/L (≈ 41.7 µM).
For `Fc1cccc2c1CSSC2` [Compound 10, 1,4-dihydro-5-fluoro-2,3-benzodithiin], in data set [1], the EC50 was found to be 1.1 mg/L (≈ 5.91 µM) and the “S.I. (selectivity index, CC50/EC50)” value was above 90.9. In addition, the 50% cytotoxic concentration (CC50) at 120 h in data set [2] was above 100 mg/L.
`Cc1ccc2c(c1)CSSC2` [Compound 6, 1,4-dihydro-6-methyl-2,3-benzodithiin]: in data set [1], the EC50 amounted to 0.2 mg/L (≈ 1.1 µM) and the “S.I. (selectivity index, CC50/EC50)” value was found to be 224. This compound showed a cytotoxic concentration (CC50) at 120 h in data set [2] of 44.7 mg/L (≈ 245 µM).
In the case of `O=C(O)c1ccc2c(c1)CSSC2` [Compound 5, 1,4-dihydro-2,3-benzodithiin-6-carboxylic acid], in data set [1], the concentration for a half-maximal effect (EC50) came out at 11.8 mg/L (≈ 55.6 µM) and the “S.I. (selectivity index, CC50/EC50)” value was found to be 4.0. Further, the cytotoxic concentration (CC50) at 120 h in data set [2] was 47.2 mg/L (≈ 222 µM).
`c1ccc(COc2ccc3c(c2)CSSC3)cc1` [Compound 7, 6-benzyloxy-1,4-dihydro-2,3-benzodithiin] displayed an EC50 in data set [1] above 9.6 mg/L. In addition, in data set [2], the CC50 at 120 h was found to be 9.6 mg/L (≈ 35 µM).
`Fc1ccc2c(c1)CSSC2` [Compound 9, 1,4-dihydro-6-fluoro-2,3-benzodithiin]: in data set [1], the concentration giving a half-maximal response (EC50) was 0.8 mg/L (≈ 4.29 µM) and the “S.I. (selectivity index, CC50/EC50)” value worked out at 72.1. Also, the CC50 at 120 h in data set [2] was 57.7 mg/L (≈ 310 µM).
Consider `c1ccc2c(c1)CSSC2` [Compound 1, 1,4-dihydro-2,3-benzodithiin], for which the EC50 turned out to be 1.7 mg/L (≈ 10.1 µM) in data set [3] and 0.3 mg/L (≈ 1.78 µM) in data set [1]. The “S.I. (selectivity index, CC50/EC50)” value is given as 26.29 in data set [3] and 143.3 in data set [1]. The midpoint of cytotoxicity in data set [2], the CC50 at 120 h, lay at 43 mg/L (≈ 256 µM). The compound further came in with a cytotoxic concentration (CC50) in data set [6] of 44.7 mg/L (≈ 266 µM).
Consider `Nc1ccc2c(c1)CSSC2` [Compound 3, 6-amino-1,4-dihydro-2,3-benzodithiin], for which, in data set [1], the midpoint of the response, the EC50, lay at 3 mg/L (≈ 16.4 µM) and the “S.I. (selectivity index, CC50/EC50)” value is on record as 1.7. Besides, in data set [2], the CC50 at 120 h is 5.1 mg/L (≈ 27.8 µM).
Turning to `COc1ccc2c(c1)CSSC2` [Compound 8, 1,4-dihydro-6-methoxy-2,3-benzodithiin], in data set [1], it took 1.6 mg/L (≈ 8.07 µM) to reach a half-maximal effect (EC50) and the “S.I. (selectivity index, CC50/EC50)” value is recorded as 8.0. This compound also registered a cytotoxic concentration (CC50) at 120 h in data set [2] of 12.8 mg/L (≈ 64.5 µM).

In general, EC50 refers to the midpoint of the concentration-response curve. Lower therefore signals an effect from little substance. For orientation: CC50 means the concentration that lowers cell viability or growth by half.
